We go through one molecule from PMC7749003 (SLAS discovery : advancing life sciences R & D, 2020).

The target of this experiment is nCDase (Homo sapiens, UniProt Q9NR71). As to the kind of experiment: manual RBM-ceramide assay with fresh compounds. As to conditions: dose titration. In kind it is biochemical.
nCDase, sequence (Q9NR71 99-780 limits assumed): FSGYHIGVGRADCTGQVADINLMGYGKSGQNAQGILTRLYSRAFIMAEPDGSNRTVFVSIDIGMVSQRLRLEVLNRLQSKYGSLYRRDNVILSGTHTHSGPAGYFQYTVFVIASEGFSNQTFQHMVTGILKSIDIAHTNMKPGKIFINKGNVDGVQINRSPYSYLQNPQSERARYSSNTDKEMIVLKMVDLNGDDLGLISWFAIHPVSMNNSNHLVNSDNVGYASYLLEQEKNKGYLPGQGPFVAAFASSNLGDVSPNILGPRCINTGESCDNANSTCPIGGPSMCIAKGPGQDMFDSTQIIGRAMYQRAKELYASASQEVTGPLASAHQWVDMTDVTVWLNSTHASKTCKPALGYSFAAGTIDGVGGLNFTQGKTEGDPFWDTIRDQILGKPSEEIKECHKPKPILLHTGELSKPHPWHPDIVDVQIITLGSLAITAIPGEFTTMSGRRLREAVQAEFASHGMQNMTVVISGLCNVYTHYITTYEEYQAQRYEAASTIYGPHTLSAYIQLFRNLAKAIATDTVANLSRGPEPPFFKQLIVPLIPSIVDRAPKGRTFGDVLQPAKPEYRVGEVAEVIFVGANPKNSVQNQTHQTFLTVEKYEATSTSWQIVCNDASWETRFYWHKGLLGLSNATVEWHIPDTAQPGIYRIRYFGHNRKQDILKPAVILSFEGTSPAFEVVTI

For orientation: IC50 means the midpoint of a concentration-inhibition curve. Regarding `CC(/C=C/C(=O)NO)=C\[C@@H](C)C(=O)c1ccc(N(C)C)cc1` [TSA, Trichostatin A], half-maximal inhibition (IC50) was put at 4 µM.
